According to patent publication US9163013B2, “Use of 1H-indazole-3-carboxamide compounds as glycogen synthase kinase 3 beta inhibitors” (AZIENDE CHIMICHE RIUNITE ANGELINI FRANCESCO A.C.R.A.F. …, priority 2012, dated 2015):
Values joined by “and” are separate entries in the source; they are usually repeats but may differ in a detail not shown here. Equal values may be shown once.

Key:
human GSK-3β [1] = biological target: T1, human GSK-3β (Homo sapiens (Human), UniProt P49841); experiment: Activity on human GSK-3β, substrate phosphorylation measured by LANCE technology; assay type: biochemical; settings: duplicate; for IC50: LANCE phosphorylation assay, five concentrations 100 μM to 10 nM, read-out: IC50
T1 sequence (P49841 whole entry): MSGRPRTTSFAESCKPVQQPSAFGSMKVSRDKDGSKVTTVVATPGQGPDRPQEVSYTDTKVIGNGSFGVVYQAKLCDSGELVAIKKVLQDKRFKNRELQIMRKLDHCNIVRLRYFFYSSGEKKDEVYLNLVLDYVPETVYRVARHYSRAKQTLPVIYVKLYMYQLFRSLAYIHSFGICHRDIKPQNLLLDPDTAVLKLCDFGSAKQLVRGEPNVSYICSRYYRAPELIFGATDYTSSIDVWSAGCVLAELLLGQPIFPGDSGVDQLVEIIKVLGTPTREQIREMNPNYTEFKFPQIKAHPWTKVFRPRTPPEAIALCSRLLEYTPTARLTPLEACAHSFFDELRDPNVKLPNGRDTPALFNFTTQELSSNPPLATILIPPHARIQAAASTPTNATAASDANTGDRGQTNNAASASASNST
Experimental: Activity on human GSK-3β was assessed using the following methods (according to Meijer et al., Chem. Biol., 2003-10:1255-1266).
In a first screening assay, compounds were tested in duplicate at a concentration of 10 μM.
Human recombinant enzyme GSK-3β was incubated for 90 minutes at 22° C. in the presence of compounds or vehicle in a reaction buffer containing ATP plus 100 nM unphosphorylated specific substrate peptide (Ulight-[…]-amide). Substrate phosphorylation was measured by LANCE technology (PerkinElmer, Conn., USA).
The results, reported in the following Table 4, are expressed as a percent of inhibition of control specific activity obtained in the presence of the test compounds (as % inhibition at 10 μm).
(§1) In a second assay, the same compounds were assayed at five concentrations ranging from 100 μM to 10 nM with ten-fold dilutions in duplicate. Compounds 1 to 7, 9, 11 and 13 to 26 were tested using the same first assay, compounds 8, 10, 12, and 27 to 31 were tested in another assay based on the binding and displacement of AlexaFluor® 647 labeled, ATP-competitive Kinase inhibitor scaffold using LanthaScreen™ TR-FRET technology Eu Kinase assay packet according to manufacturer's instruction (Life Technologies, Italy).
(§2) The IC50 values (concentration causing a half maximal inhibition of control specific activity), reported in table 4, were determined by non-linear regression analysis of the inhibition curves generated with mean replicate values using Hill equation curve fitting.

human GSK-3β [2] = biological target: T1, human GSK-3β; experiment: LanthaScreen TR-FRET Eu Kinase binding and displacement assay; settings: five concentrations 100 μM to 10 nM, duplicate
Experimental: as §1, §2

[3] = 10 μM, human recombinant GSK-3β, 90 minutes at 22° C.

Row | IC50 (human GSK-3β [1]) | SMILES | further results
1 | < 0.6 µM and 0.56 µM | COc1ccc(CCN2CCC(CNC(=O)c3n[nH]c4ccc(OC)cc34)CC2)cc1 [Compound 2, 5-methoxy-N-({1-[2-(4-methoxyphenyl)ethyl]piperidin-4-yl}methyl)-1H-indazole-3-carboxamide] | % Inhibition [10 μM] (human GSK-3β [1]; [3]): 91%; inhibition at 10 µM (human GSK-3β [1]; [3]): > 90%
2 | 0.31 µM | COc1ccc2[nH]nc(C(=O)NCC3CCN(Cc4ccc(Cl)cc4Cl)CC3)c2c1 [Compound 3, N-{[1-(2,4-dichlorobenzyl)piperidin-4-yl]methyl}-5-methoxy-1H-indazole-3-carboxamide] | 
3 | 0.64 µM | COc1ccc2[nH]nc(C(=O)NCC3CCN(Cc4ccc(C(F)(F)F)cc4)CC3)c2c1 [Compound 4, 5-methoxy-N-({1-[4-(trifluoromethyl)benzyl]piepridin-4-yl}methyl)-1H-indazole-3-carboxamide] | 
4 | 0.35 µM | COc1ccc2[nH]nc(C(=O)NCC3CCN(Cc4ccc(OCc5ccccc5)cc4)CC3)c2c1 [Compound 5, N-({1-[4-(benzyloxy)benzyl]piperidin-4-yl}methyl)-5-methoxy-1H-indazole-3-carboxamide] | 
5 | 0.4 µM | COc1ccc2[nH]nc(C(=O)NCC3CCN(Cc4ccc(O)cc4)CC3)c2c1 [Compound 6, N-{[1-(4-hydroxybenzyl)piperidin-4-yl]methyl}-5-methoxy-1H-indazole-3-carboxamide] | 
6 |  | COc1ccc2[nH]nc(C(=O)NCC3CCN(Cc4nc(C(=O)O)cs4)CC3)c2c1 [Compound 8, 2-{[4-({[(5-Methoxy-1H-indazol-3-yl)carbonyl]amino}methyl)piperidin-1-yl]methyl}-1,3-thiazole-4-carboxylic acid] | IC50 (human GSK-3β [2]): 0.17 µM
7 | 0.21 µM | COC(=O)c1coc(CN2CCC(CNC(=O)c3n[nH]c4ccc(OC)cc34)CC2)n1 [Compound 9, Methyl 2-{[4-({[(5-methoxy-1H-indazol-3-yl)carbonyl]amino}methyl)piperidin-1-yl]methyl}-1,3-oxazole-4-carboxylate] | 
8 |  | COc1ccc2[nH]nc(C(=O)NCC3CCN(Cc4nc(C(=O)O)co4)CC3)c2c1 [Compound 10, 2-{[4-({[(5-Methoxy-1H-indazol-3-yl)carbonyl]amino}methyl)piperidin-1-yl]methyl}-1,3-oxazole-4-carboxylic acid hydrate] | IC50 (human GSK-3β [2]): 0.31 µM
9 | 0.36 µM | COC(=O)c1coc(CN2CCC(CNC(=O)c3n[nH]c4ccc(Br)cc34)CC2)n1 [Compound 11, Methyl 2-{[4-({[(5-bromo-1H-indazol-3-yl)carbonyl]amino}methyl)piperidin-1-yl]methyl}-1,3-oxazole-4-carboxylate] | 
10 | 0.95 µM | CCOC(=O)c1nc(CN2CCC(CNC(=O)c3n[nH]c4ccc(OC)cc34)CC2)cs1 [Compound 13, Ethyl 4-{[4-({[(5-methoxy-1H-indazol-3-yl)carbonyl]amino}methyl)piperidin-1-yl]methyl}-1,3-thiazole-2-carboxylate] | 
11 | 0.23 µM | COC(=O)c1ccoc1CN1CCC(CNC(=O)c2n[nH]c3ccc(OC)cc23)CC1 [Compound 14, Methyl 2-{[4-({[(5-methoxy-1H-indazol-3-yl)carbonyl]amino}methyl)piperidin-1-yl]methyl}furan-3-carboxylate] | 
12 | 0.26 µM | CCOC(=O)c1ccc(CN2CCC(CNC(=O)c3n[nH]c4ccc(Br)cc34)CC2)o1 [Compound 15, Ethyl 5-{[4-({[(5-bromo-1H-indazol-3-yl)carbonyl]amino}methyl)piperidin-1-yl]methyl}furan-2-carboxylate] | 
13 | 0.36 µM | COc1ncccc1-c1ccc2[nH]nc(C(=O)NCC3CCN(Cc4ccc(C(=O)O)o4)CC3)c2c1 [Compound 16, 5-({4-[({[5-(2-Methoxypyridin-3-yl)-1H-indazol-3-yl]carbonyl}amino)methyl]piperidin-1-yl}methyl)furan-2-carboxylic acid hydrate] | 
14 | 0.02 µM | COc1ccc(-c2ccc3[nH]nc(C(=O)NCC4CCN(Cc5ccc(C(=O)O)o5)CC4)c3c2)cn1 [Compound 17, 5-({4-[({[5-(6-Methoxypyridin-3-yl)-1H-indazol-3-yl]carbonyl}amino)methyl]piperidin-1-yl}methyl)furan-2-carboxylic acid hydrate] | 
15 | 0.3 µM | COc1ccc(-c2ccc3[nH]nc(C(=O)NCC4CCN(Cc5ccc(C(=O)O)o5)CC4)c3c2)cc1 [Compound 18, 5-({4-[({[5-(4-Methoxyphenyl)-1H-indazol-3-yl]carbonyl}amino)methyl]piperidin-1-yl}methyl)furan-2-carboxylic acid hydrate] | 
16 | 0.01 µM | O=C(O)c1ccc(CN2CCC(CNC(=O)c3n[nH]c4ccc(-c5cccc(F)c5F)cc34)CC2)o1 [Compound 19, 5-({4-[({[5-(2,3-Difluorophenyl)-1H-indazol-3-yl]carbonyl}amino)methyl]piperidin-1-yl}methyl)furan-2-carboxylic acid] | 
17 | 0.02 µM | O=C(O)c1ccc(CN2CCC(CNC(=O)c3n[nH]c4ccc(-c5ccccc5F)cc34)CC2)o1 [Compound 20, 5-({4-[({[5-(2-Fluorophenyl)-1H-indazol-3-yl]carbonyl}amino)methyl]piperidin-1-yl}methyl)furan-2-carboxylic acid hydrate] | 
18 | 0.21 µM | O=C(O)c1ccc(CN2CCC(CNC(=O)c3n[nH]c4ccc(Br)cc34)CC2)o1 [Compound 22, 5-{[4-({[(5-Bromo-1H-indazol-3-yl)carbonyl]amino}methyl)piperidin-1-yl]methyl}furan-2-carboxylic acid] | 
19 | 0.33 µM | CCOC(=O)c1ccc(CN2CCC(CNC(=O)c3n[nH]c4ccc(OC)cc34)CC2)o1 [Compound 23, Ethyl 5-{[4-({[(5-methoxy-1H-indazol-3-yl)carbonyl]amino}methyl)piperidin-1-yl]methyl}furan-2-carboxylate] | 
20 | > 1 µM and 1.4 µM | COc1ccc2[nH]nc(C(=O)NCC3CCN(CCN4C[C@@H](C)O[C@@H](C)C4)CC3)c2c1 [Compound 25, N-[(1-{2-[(2R,6S)-2,6-dimethylmorpholin-4-yl]ethyl}piperidin-4-yl)methyl]-5-methoxy-1H-indazole-3-carboxamide] | 
21 | > 1 µM and 2.1 µM | COc1ccc2[nH]nc(C(=O)NCC3CCN(CCCN4C[C@@H](C)O[C@@H](C)C4)CC3)c2c1 [Compound 26, N-[(1-{3-[(2R,6S)-2,6-dimethylmorpholin-4-yl]propyl}piperidin-4-yl)methyl]-5-methoxy-1H-indazole-3-carboxamide] | 
22 |  | COc1ccc2[nH]nc(C(=O)NCC3CCN(CCC4CCCC(C)C4)CC3)c2c1 (stereo not drawn) [Compound 27, 5-methoxy-N-({1-[2-(3-methylcyclohexyl)ethyl]piperidin-4-yl}methyl)-1H-indazole-3-carboxamide] | IC50 (human GSK-3β [2]): 0.31 µM
23 |  | COc1ccc2[nH]nc(C(=O)NCC3CCN(Cc4ccnc(C(=O)O)c4)CC3)c2c1 [Compound 28, 4-{[4-({[(5-methoxy-1H-indazol-3-yl)carbonyl]amino}methyl)piperidin-1-yl]methyl}pyridine-2-carboxylic acid] | IC50 (human GSK-3β [2]): 0.45 µM
24 |  | COc1ccc2[nH]nc(C(=O)NCC3CCN(Cc4ccc(C(=O)O)nc4)CC3)c2c1 [Compound 29, Sodium 5-{[4-({[(5-methoxy-1H-indazol-3-yl)carbonyl]amino}methyl)piperidin-1-yl]methyl}pyridine-2-carboxylate] | IC50 (human GSK-3β [2]): 0.32 µM
25 |  | COc1ccc2[nH]nc(C(=O)NCC3CCN(Cc4noc(C(N)=O)n4)CC3)c2c1 [Compound 30, N-({1-[(5-carbamoyl-1,2,4-oxadiazol-3-yl)methyl]piperidin-4-yl}methyl)-5-methoxy-1H-indazole-3-carboxamide] | IC50 (human GSK-3β [2]): 0.31 µM
